Where only a bound is given, the exact number is not on record here.

Consider four molecules from patent US20030149000A1, “Method for the treatment of disorders associated with apoptosis using N-heterocyclic glyoxylamide compounds” (Shionogi & Co., Ltd., priority 1998, published 2003).

In data set [1] the test system is hPLA2-II-induced neuronal cell death. Kind of data set: MTT reduction assay of neuronal survival after hPLA2-II treatment. In kind it is cell-based, Sprague-Dawley rat. The protocol:
(§1) According to a method disclosed in Neurosci. Lett. 203, 175-178 Ueda K. et al, Neuronal cultures were prepared from cerebral cortex of 19-day-old Sprague-Dawley rat embryos. The cerebral cortices were dissociated in isotonic buffer (137 mM NaCl, 5.4 mM KCl, 0.17 mM Na2HPO4, 0.22 mM KH2PO4, 5.5 mM Glucose, 59 mM Sucrose; volume of each buffer is 25 ml) with 4 mg/ml trypsin and 0.4 mg/ml deoxyribonuclease I. Cells were plated at a density of 2.5×10^5 cells/cm^2 on poly-L-lysine coated dishes in conditioning medium, Leibovitz's L-15 medium supplemented with 5% fetal calf serum and 5% horse serum. Culture medium was exchanged for conditioning medium containing 0.1 mM arabinosylcytosine C on day 1 after plating. Cultured neurons were used for the experiments on day 2 of culture.
For assessment of neurotoxicity of hPLA2-II according to a method disclosed in Neurosci. […] Absorbance at 570 nm were measured with a microplate reader.
[…] MTT reducing activity was determined 48 hr after hPLA2-II-treatment.
At the indicated time after the treatment with hPLA2-II (1 μM), the compound prepared in Example 2 (final concentration=10 μM) was added to the culture medium. Data are expressed as mean±SEM values (n=4). *P<0.05, **P<0.01, compared with vehicle-treated conditions by ANOVA followed by Dunnett's test. […]

The conditions of data set [2]: rats after transient middle cerebral artery occlusion; cited from earlier work.
For the next data set, the system named is cortical neurons. Kind of data set: Ultrastructural changes in cortical neurons after hPLA2-II treatment (electron microscope). In kind it is cell-based, Sprague-Dawley rat. To be noted: treated for 48 h. As to the method: as §1
Cells were treated with hPLA2-II for 48 h, and fixed in situ in 1-5% (especially 2.5%) glutaraldehyde in PBS for 2 h at 4° C. and post-fixed in 0.5-2% (especially 1% osmium tetraoxide). To increase contrast, cells were double-fixed in saturated thiocarbohydrazide-osmium. Afterwards, samples were dehydrated using a graded series of ethanol from 50-100%. Tissue culture dishes were embedded in Araldite or Epoxy resin (especially Epon 812), cured in vacuo for 48 h at 60-70° C. and sectioned. […]

For the molecule `CCc1c(C(=O)C(N)=O)c2c(OCC(=O)O)cccc2n1Cc1ccccc1` [Example 1, [[3-(2-Amino-1,2-dioxoethyl)-2-ethyl-1-(phenylmethyl)-1H-indol-4-yl]oxy]acetic acid], the “suppression of hPLA2-II-induced neuronal death (MTT reducing activity), co-treatment” value in data set [1] (3 μM hPLA2-II, 48 well-cultured neuron, FIG. 4) was “suppressed neuronal death completely depending on its concentration”.

Consider `CCc1c(C(=O)C(N)=O)c2c(OCC(=O)O)cccn2c1Cc1ccccc1-c1ccccc1` [Example 2, (8-(Carboxymethyloxy)-2-ethyl-3-(o-phenylbenzyl)indolizin-1-yl)glyoxylamide], for which, in data set [1] (1 μM hPLA2-II, compound added at 10 μM final concentration at indicated time after hPLA2-II, FIG. 3), the “time after hPLA2-II treatment within which post-treatment with compound suppressed neuronal death completely” value is not above 10 h.

Regarding `CCN(CC)CCCC(C)Nc1c2ccc(Cl)cc2nc2ccc(OC)cc12` (centres unmarked) [quinacrine], the infarct-size result in data set [2] is given as “reduces infarct-size”.

B1: hPLA2-II: human PLA2-II, used to induce neuronal death in cultured cortical neurons (protein, UniProt P14555 21-144, looked up)
Phospholipase A2, membrane …: NLVNFHRMIKLTTGKEAALSYGFYGCHCGVGGRGSPKDATDRCCVTHDCCYKRLEKRGCGTKFLSYKFSNSGSRITCAKQDSCRSQLCECDKAAATCFARNKTTYNKKYQYYSNKHCRGSTPRC
Consider B1, for which the “morphology of neurons (cell bodies, neurites) after hPLA2-II treatment” value with cortical neurons (compared with untreated neurons) was “shrank cell bodies and lost their neurites”. Besides, in the data set on cortical neurons (electron microscope, compared with untreated cells, FIG. 1B), the “ultrastructural changes of neurons after hPLA2-II treatment” value was “condensation and fragmentation of nuclear chromatin, lost of intracellular organelle other than mitochondria and blebbing of plasma membranes”.
